In general, IC50 refers to the point on the concentration scale where inhibition reaches its midpoint. The low end stands for greater potency in that assay, the high end for weaker potency in that assay. One may read the EC50 as the concentration needed to bring the measured effect to its halfway point.

In ChEMBL document CHEMBL1151090, “Synthesis of racemic 2-phosphonomethyl-1,3-dioxolane nucleoside analogues as potential antiviral agents” (Bioorg Med Chem Lett, 1995) one finds IC50, EC50 and CC50 data, which are given here for eight compounds.

Assay [1] deals with MT4. The assay can be described thus: Inhibitory activity against HIV-1 replication in MT-4 cells; Not cytotoxic. As to conditions: Homo sapiens. The assay is classed as functional, cell-based.
The test system of assay [2] is MT4. Briefly: Inhibitory activity of compound was determined against HIV-1 replication in MT-4 cells; […]. As to conditions: Homo sapiens. The format is functional, cell-based.
The test system of assay [3] is MT4. Briefly: Inhibitory activity against HIV-1 replication in MT-4 cells; not cytotoxic. The assay is classed as functional, cell-based. As to conditions: Homo sapiens.
In assay [4] the test system is MT4. Briefly: Inhibitory activity of compound was determined against HIV-1 replication in MT-4 cells. The format is functional, cell-based. As to conditions: Homo sapiens.
In assay [5] the test system is MT4. The assay can be described thus: Compound was tested for its […] in MT-4 cells. The format is functional. To be noted: Homo sapiens, read-out: CD50 (the source's name).
The test system of assay [6] is MT4. Briefly: Inhibitory activity of compound was determined against HIV-1 replication in MT-4 cells; weak activity. The format is functional, cell-based. To be noted: Homo sapiens.

Molecules are shown by their SMILES.

Regarding `Nc1nc(O)c2ncn([C@H]3CO[C@H](CP(=O)(O)O)O3)c2n1`, the IC50 in assay [1] is more than 332 µM. In addition, the EC50 in assay [2] is more than 332 µM.

In assay [3], `Cc1cn([C@H]2CO[C@H](CP(=O)(O)O)O2)c(=O)[nH]c1=O` registered an IC50 of more than 332 µM. In assay [2], this compound had an EC50 of more than 332 µM. Compound `Nc1ccn([C@H]2CO[C@H](CP(=O)(O)O)O2)c(=O)n1` came in with an IC50 in assay [3] of more than 332 µM. Further, the EC50 in assay [2] is more than 332 µM.

Consider `Nc1nc(O)c2ncn([C@H]3CO[C@@H](CP(=O)(O)O)O3)c2n1`, for which the IC50 in assay [3] was more than 332 µM. In assay [2], the concentration giving a half-maximal response (EC50) was more than 332 µM. In the case of `Cc1cn([C@H]2CO[C@@H](CP(=O)(O)O)O2)c(=O)[nH]c1=O`, the half-inhibitory concentration (IC50) in assay [3] was more than 332 µM. For the same compound, the EC50 in assay [2] is more than 332 µM.

On to `Nc1ccn([C@H]2CO[C@@H](CP(=O)(O)O)O2)c(=O)n1`, for which, in assay [3], the IC50 is more than 332 µM. Further, the EC50 in assay [2] stood at 312 µM. `Cc1cn(C2COC(CO[PH](=O)O)O2)c(=O)[nH]c1=O` (stereo not given) displayed an EC50 in assay [4] of 51 µM. Further, in assay [5], the CC50 stood at 342 µM.

For `CC(=O)Nc1ccn(C2COC(CP(=O)(O)O)O2)c(=O)n1` (stereo not given), the response in assay [6] was half-maximal at 312 µM (EC50).
